Test results from publication PMC8406304, “Inhibiting Type VI Secretion System Activity with a Biomimetic Peptide Designed To Target the Baseplate Wedge Complex” (mBio, 2021).
“Also recorded” adds a separate entry of the source.

How the values were obtained:
TssK = test: NMR peptide-TssK interaction (1H-15N HSQC, 1D 1H); type: binding, enteroaggregative Escherichia coli (EAEC)
Procedure: All NMR experiments were recorded at 300 K on a Bruker Avance-II 600 MHz spectrometer equipped with a cryoprobe at the IMM (Institut de Microbiologie de la Mediterranée) NMR platform. The 450-μl peptide sample tube was prepared at 1.8 mM in KPO4 buffer (50 mM KPO4 [pH 6.9], 150 mM NaCl) complemented with 30 μl D2O. 1D ^1H-^1H-TOCSY, ^1H-NOESY, and ^1H-^15N HSQC spectra (F2 = 2048; F1 = 128; NS = 384) (NS is the number of scans [accumulation] for the experiment; F2 is the sweep width; F1 is the Fourier number that defines the 2D spectrum dimensions and its digital resolution) were recorded using default pulse sequences as provided by the manufacturer. For the peptide-TssK interaction experiments, 200 μl of a 410 μM stock of TssK was added to the same sample tube (1.2 mM peptide and 140 μM TssK [final concentration]), and all NMR spectra were recorded with the addition of longer ^1H-^15N HSQC spectrometry (NS = 1,024). All spectra were transformed and the figures were generated using Bruker Topspin 4.0.9.

[1] = tested on: TssK-sfGFP foci in EAEC (assembled baseplates); type: cell-based, enteroaggregative Escherichia coli (EAEC)
Procedure: Fluorescence microscopy experiments were performed as previously described ([97], [98]). An overnight culture in LB of EAEC strain with a chromosomal GFP fusion to TssK was diluted 1/200 in SIM medium and grown at 37°C until the culture reached an A600 of ∼0.8. Ten optical density units (ODU) was pelleted for 10 min at 3,500 × g, resuspended at 1 ODU/ml in the same SIM medium supplemented with 0.8 M NaCl, and equilibrated for 1 h at room temperature. Cells were pelleted for 10 min at 3,500 × g, resuspended in 100 μl of classical SIM without NaCl supplemented with 1 mM peptide of buffer, and incubated for 20 min at room temperature. Cells were diluted in classical SIM medium at 0.4 ODU/ml and incubated at 37°C 160 rpm until the absorbance again reached ∼0.8. Ten ODU was harvested and resuspended in fresh SIM medium. Cell mixtures were spotted on a thin pad of SIM medium supplemented with 2% agarose, covered with a coverslip, and incubated for 20 to 30 min at room temperature before microscopy acquisition. Fluorescence microscopy was performed with a Nikon Eclipse Ti2 microscope equipped with a 100× objective (numerical aperture, 1.45), an Orca-Fusion digital camera (Hamamatsu), and a perfect focus system (PFS) to automatically maintain focus so that the point of interest within a specimen is kept in sharp focus at all times despite mechanical or thermal perturbations. All fluorescence images were acquired in Hilo mode using an Ilas2 TIRF module (Gataca Systems). Exposure times were typically 100 ms for phase contrast and 100 ms using the GFP channel. For image treatment, noise and background were reduced by filtering large structures down to 40 pixels in the FFT Bandpass Filter function of ImageJ ([102]). The GFP foci were automatically detected using the MicrobeJ plugin ([103]).

[2] = tested on: EAEC T6SS+ killing of E. coli K-12 W3110 prey; test: Antibacterial growth competition assay (EAEC attacker vs E. coli prey); type: cell-based, enteroaggregative Escherichia coli (EAEC); details: 1 mM BCP added directly to competition mixture, 4 h at 37°C, CFU enumeration
Procedure: Based on the BCP ability to bind to TssK and to limit the in vitro binding of the TssFGE wedge components onto TssK, we evaluated its T6SS interference potential on bacteria. We set up a competition experiment between EAEC (predator, T6SS^+) and E. coli (prey, T6SS^−) strains (see Materials and Methods) in the presence or absence of the BCP. Incubation of cells with 1 mM BCP is accompanied by a drastic decrease of prey cells number, similar to what is observed in the absence of BCP. […] To test this hypothesis, we developed a protocol favoring BCP entry into bacterial cells without any electroporation or chemical steps likely to impair T6SS activity (see Materials and Methods).
The antibacterial growth competition assay was performed as previously described ([100]). Wild-type E. coli K-12 strain W3110 bearing the pUA66-rrnB plasmid (conferring kanamycin resistance and constitutive GFP fluorescence, with the gfp gene under the control of the ribosomal rrnB promoter) ([101]) was used as the recipient. Attacker and recipient cells were grown for 16 h in LB medium, diluted in SIM medium to allow maximal expression of the sci-1 gene cluster. Once the culture reached an A600 of ∼0.8, cells were harvested and normalized, and drops of the mixture were spotted in triplicate onto a prewarmed dry SIM agar plate with or without the addition of 0.5 mg ml^−1 arabinose. […]

EAEC = test: Bacterial growth / toxicity of the peptide; type: cell-based, enteroaggregative Escherichia coli (EAEC); details: up to 1 mM, EAEC TssK-GFP in SIM medium, OD at 600 nm; biological triplicates

## SRPVMG-SRPVMG-SRPVMG (head to tail) [BCP, biomimetic cyclic peptide SRPVMG-SRPVMG-SRPVMG mimicking TssG foot 1]
TssK; 1 part TssK to 10 parts BCP (1.2 mM peptide, 140 μM TssK), 50 mM KPO4 pH 6.9, 150 mM NaCl, 300 K
  1H-15N HSQC correlations after addition of TssK: totally disappear
TssK; 1 part TssK to 10 parts BCP, pH 6.9, 300 K
  1D 1H NMR peptide peaks after addition of TssK: strong broadening of the peptides peaks
[1]; 1 mM
  time of maximum effect after peptide entry: within the first hour after peptide entry
[1]; 1 mM peptide, hypo-osmotic shock (osmoporation), vs peptide-free treated cells, ∼500 cells per condition, triplicate
  increase in proportion of bacteria with no observable TssK-sfGFP foci: ~30%
[1]; 1 mM peptide, hypo-osmotic shock, in words, ∼500 cells per condition, triplicate
  number of fluorescent TssK-sfGFP foci: decreased TssK-sfGFP foci compared to both control peptides
[1]; BCP, cells without osmotic shock, compared to cells without peptide
  TssK-GFP foci without osmotic shock: comparable to those without peptide
[1]; EAEC TssK-GFP, SIM medium, NaCl-induced hypo-osmotic shock
  requirement of hypo-osmotic shock for entry into cells: mandatory for BCP entry into cells
[2]
  effect on killing ability of EAEC (prey survival): does not affect the killing ability of EAEC
EAEC
  toxicity for bacteria: not toxic for bacteria up to 1 mM; also recorded: no impact on the growth of EAEC
